Assay results reported in patent publication US7138361B2, “Herbicidal heterocycles” (E. I. du Pont de Nemours and Company, priority 2000, dated 2006).

Key:
Assay type in all cases: in vivo
[1] = tested on: Surinam grass (Brachiaria decumbens); assay: Test B postemergence; settings: 13 to 15 days
Source text: (§1) Seeds selected from barnyardgrass (Echinochloa crus-galli), Surinam grass (Brachiaria decumbens), cocklebur (Xanthium strumarium), corn (Zea mays), crabgrass (Digitaria sanguinalis), giant foxtail (Setaria faberii), lambsquarters (Chenopodium album), morning glory (Ipomoea hederacea), pigweed (Amaranthus retroflexus), rice (Oryza saliva) and velvetleaf (Abutilon theophrasti) were planted and treated preemergence with test chemicals formulated in a non-phytotoxic solvent mixture which included a surfactant.
(§2) At the same time, plants selected from these crop and weed species and also blackgrass (Alopecurus myosuroides), wheat (Triticum aestivum) and wild oat (Avena fatua) were treated with postemergence applications of test chemicals formulated in the same manner. Plants ranged in height from 2 to 18 cm (1- to 4-leaf stage) for postemergence treatments. Plant species in the flooded paddy test consisted of rice (Oryza saliva), smallflower flatsedge (Cyperus difformis), duck salad (Heteranthera limosa) and barnyardgrass (Echinochloa crus-galli) grown to the 2-leaf stage for testing. Treated plants and controls were maintained in a greenhouse for 13 to 15 days, after which time all species were compared to controls and visually evaluated. Plant response ratings, summarized in Table B, are based on a scale of 0 to 100 where 0 is no effect and 100 is complete control. A dash (-) response means no test result.

[2] = tested on: barnyardgrass (Echinochloa crus-galli); assay: Test B postemergence; settings: 13 to 15 days
Source text: as §1, §2

[3] = tested on: blackgrass (Alopecurus myosuroides); assay: Test B postemergence; settings: 13 to 15 days
Source text: as §1, §2

[4] = tested on: cocklebur (Xanthium strumarium); assay: Test B postemergence; settings: 13 to 15 days
Source text: as §1, §2

corn (Zea mays) [5] = assay: Test B postemergence; settings: 13 to 15 days
Source text: as §1, §2

[6] = tested on: crabgrass (Digitaria sanguinalis); assay: Test B postemergence; settings: 13 to 15 days
Source text: as §1, §2

[7] = tested on: giant foxtail (Setaria faberii); assay: Test B postemergence; settings: 13 to 15 days
Source text: as §1, §2

[8] = tested on: lambsquarters (Chenopodium album); assay: Test B postemergence; settings: 13 to 15 days
Source text: as §1, §2

[9] = tested on: morning glory (Ipomoea hederacea); assay: Test B postemergence; settings: 13 to 15 days
Source text: as §1, §2

[10] = tested on: pigweed (Amaranthus retroflexus); assay: Test B postemergence; settings: 13 to 15 days
Source text: as §1, §2

[11] = tested on: velvetleaf (Abutilon theophrasti); assay: Test B postemergence; settings: 13 to 15 days
Source text: as §1, §2

[12] = tested on: wheat (Triticum aestivum); assay: Test B postemergence; settings: 13 to 15 days
Source text: as §1, §2

wild oat (Avena fatua) = assay: Test B postemergence; settings: 13 to 15 days
Source text: as §1, §2

[13] = tested on: Surinam grass (Brachiaria decumbens); assay: Test B preemergence
Source text: as §1, §2

[14] = tested on: barnyardgrass (Echinochloa crus-galli); assay: Test B preemergence
Source text: as §1, §2

[15] = tested on: cocklebur (Xanthium strumarium); assay: Test B preemergence
Source text: as §1, §2

corn (Zea mays) [16] = assay: Test B preemergence
Source text: as §1, §2

[17] = tested on: crabgrass (Digitaria sanguinalis); assay: Test B preemergence
Source text: as §1, §2

[18] = tested on: giant foxtail (Setaria faberii); assay: Test B preemergence
Source text: as §1, §2

[19] = tested on: lambsquarters (Chenopodium album); assay: Test B preemergence
Source text: as §1, §2

[20] = tested on: morning glory (Ipomoea hederacea); assay: Test B preemergence
Source text: as §1, §2

[21] = tested on: pigweed (Amaranthus retroflexus); assay: Test B preemergence
Source text: as §1, §2

rice (Oryza saliva) [22] = assay: Test B preemergence
Source text: as §1, §2

[23] = tested on: velvetleaf (Abutilon theophrasti); assay: Test B preemergence
Source text: as §1, §2

[24] = tested on: barnyardgrass (Echinochloa crus-galli); assay: Test C flooded paddy test; settings: for Barnyardgrass plant response rating: Flooded Paddy, scale 0 to 100, 0 no effect, 100 complete control; for Plant response rating, Barnyardgrass: flooded paddy test, scale 0 to 100 (0 no effect, 100 complete control)
In short: (§3)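 Greenhouse-maintained for 12 to 14 days after treatment, the paddy plants (2-leaf stage at application) were scored visually against controls. A score of 0 denotes no effect and a score of 100 denotes complete control.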

[25] = tested on: duck salad (Heteranthera limosa); assay: Test C flooded paddy test; settings: for Ducksalad plant response rating: Flooded Paddy, scale 0 to 100, 0 no effect, 100 complete control; for Plant response rating, Ducksalad: flooded paddy test, scale 0 to 100 (0 no effect, 100 complete control)
In short: as §3

rice (Oryza saliva) [26] = assay: Test C flooded paddy test; settings: for Rice plant response rating: Flooded Paddy, scale 0 to 100, 0 no effect, 100 complete control; for Plant response rating, Rice: flooded paddy test, scale 0 to 100 (0 no effect, 100 complete control)
In short: as §3

[27] = tested on: smallflower flatsedge (Cyperus difformis); assay: Test C flooded paddy test; settings: for Flatsedge plant response rating: Flooded Paddy, scale 0 to 100, 0 no effect, 100 complete control; for Plant response rating, Flatsedge: flooded paddy test, scale 0 to 100 (0 no effect, 100 complete control)
In short: as §3

[28] = Rate 125 g/ha, scale 0 (no effect) to 100 (complete control)
[29] = Rate 500 g/ha, scale 0 to 100, 0 is no effect, 100 is complete control
[30] = Preemergence, Rate 500 g/ha, scale 0 to 100, 0 no effect, 100 complete control
[31] = preemergence, Rate 125 g/ha, scale of 0 to 100 where 0 is no effect and 100 is complete control, 13 to 15 days

For `CC(C)c1ccn(C2OCN(c3cccc(OC(F)(F)F)c3)C2=O)n1` (stereo not shown) [Compound 65], the “Plant response rating, Surinam grass” value [1, 28] was 20, the “Plant response rating, Surinam grass” value [1, 29] was 40 and the “Plant response rating, Barnyardgrass” value [2, 28] was 0. The “Plant response rating, Barnyardgrass” value [2, 29] was 100, the “Plant response rating, Blackgrass” value [3, 28] was 0 and the “Plant response rating, Blackgrass” value [3, 29] was 0. The “Plant response rating, Cocklebur” value [4, 28] was 20, the “Plant response rating, Cocklebur” value [4, 29] was 30 and the “Plant response rating, Corn” value (corn (Zea mays) [5]; [28]) was 0. For the same molecule, the “Plant response rating, Corn” value (corn (Zea mays) [5]; [29]) was 0, the “Plant response rating, Crabgrass” value [6, 28] was 0 and the “Plant response rating, Crabgrass” value [6, 29] was 100. The “Plant response rating, Foxtail, Giant” value [7, 28] was 0, the “Plant response rating, Foxtail, Giant” value [7, 29] was 0 and the “Plant response rating, Lambsquarters” value [8, 28] was 60. For the same molecule, the “Plant response rating, Lambsquarters” value [8, 29] was 70, the “Plant response rating, Morningglory” value [9, 28] was 0 and the “Plant response rating, Morningglory” value [9, 29] was 0. For the same molecule, the “Plant response rating, Pigweed” value [10, 28] was 0, the “Plant response rating, Pigweed” value [10, 29] was 0 and the “Plant response rating, Velvetleaf” value [11, 28] was 0. The “Plant response rating, Velvetleaf” value [11, 29] was 0, the “Plant response rating, Wheat” value [12, 28] was 0 and the “Plant response rating, Wheat” value [12, 29] was 0. For the same molecule, the “Plant response rating, Wild Oat” value (wild oat (Avena fatua); [28]) was 0, the “Plant response rating, Wild Oat” value (wild oat (Avena fatua); [29]) was 0 and the “Plant response rating, Surinam grass” value [13, 30] was 20. The “Plant response rating, Surinam grass” value [13, 31] was 0, the “Plant response rating, Barnyardgrass” value [14, 30] was 100 and the “Plant response rating, Barnyardgrass” value [14, 31] was 90. For the same molecule, the “Plant response rating, Cocklebur” value [15, 30] was 20, the “Plant response rating, Cocklebur” value [15, 31] was 0 and the “Plant response rating, Corn” value (corn (Zea mays) [16]; [30]) was 0. For the same molecule, the “Plant response rating, Corn” value (corn (Zea mays) [16]; [31]) was 0, the “Plant response rating, Crabgrass” value [17, 30] was 70 and the “Plant response rating, Crabgrass” value [17, 31] was 20. The “Plant response rating, Foxtail, Giant” value [18, 30] was 70, the “Plant response rating, Foxtail, Giant” value [18, 31] was 20 and the “Plant response rating, Lambsquarters” value [19, 30] was 100. The “Plant response rating, Lambsquarters” value [19, 31] was 100, the “Plant response rating, Morningglory” value [20, 30] was 0 and the “Plant response rating, Morningglory” value [20, 31] was 0. The “Plant response rating, Pigweed” value [21, 30] was 100, the “Plant response rating, Pigweed” value [21, 31] was 100 and the “Plant response rating, Rice” value (rice (Oryza saliva) [22]; [30]) was 20. For the same molecule, the “Plant response rating, Rice” value (rice (Oryza saliva) [22]; [31]) was 0, the “Plant response rating, Velvetleaf” value [23, 30] was 20 and the “Plant response rating, Velvetleaf” value [23, 31] was 0. For the same molecule, the “Barnyardgrass plant response rating” value ([24]; Rate 250 g/ha) was 100, the “Barnyardgrass plant response rating” value ([24]; Rate 500 g/ha) was 100 and the “Plant response rating, Barnyardgrass” value ([24]; Rate 62 g/ha) was 40. For the same molecule, the “Plant response rating, Barnyardgrass” value ([24]; Rate 125 g/ha) was 80, the “Ducksalad plant response rating” value ([25]; Rate 250 g/ha) was 30 and the “Ducksalad plant response rating” value ([25]; Rate 500 g/ha) was 90. The “Plant response rating, Ducksalad” value ([25]; Rate 62 g/ha) was 0, the “Plant response rating, Ducksalad” value ([25]; Rate 125 g/ha) was 0 and the “Rice plant response rating” value (rice (Oryza saliva) [26]; Rate 250 g/ha) was 90. The “Rice plant response rating” value (rice (Oryza saliva) [26]; Rate 500 g/ha) was 90, the “Plant response rating, Rice” value (rice (Oryza saliva) [26]; Rate 62 g/ha) was 0 and the “Plant response rating, Rice” value (rice (Oryza saliva) [26]; Rate 125 g/ha) was 40. The “Flatsedge plant response rating” value ([27]; Rate 250 g/ha) was 100, the “Flatsedge plant response rating” value ([27]; Rate 500 g/ha) was 100 and the “Plant response rating, Flatsedge” value ([27]; Rate 62 g/ha) was 0. The “Plant response rating, Flatsedge” value ([27]; Rate 125 g/ha) was 100.
